We go through three molecules from patent publication US9475778B2, “Sulfate of 5-hydroxy-1H-imidazole-4-carboxamide” (FUJIFILM Corporation, priority 2013, dated 2016).

Format in all cases: physicochemical
A short description of series [1]: Storage stability test (2) under conditions of 60° C. and relative humidity of 75% (purity by HPLC). Particulars: relative humidity 75%, 2 weeks. Here is the method:
The purities are represented in terms of HPLC area %. The HPLC measurement was performed by using Prominence (Shimadzu) under the following conditions.
Storage Stability Test (2) Under Conditions of 60° C. and Relative Humidity of 75%
As a test substance, the crystals obtained in Example 1 were chosen.
The test substance (about 0.3 g) was put into a glass bottle, and stored under the conditions of 60° C. and relative humidity of 75% for 2 weeks. After completion of the test, purity of the substance was measured by HPLC.

A short description of series [2]: Storage stability test (1) under conditions of 60° C. and relative humidity of 75% (coloring). Particulars: glass bottle, relative humidity 75%, 2 weeks, compared with crystals of Comparative Example 1. As to the method: Storage Stability Test (1) Under Conditions of 60° C. and Relative Humidity of 75%
As test substances, the crystals obtained in Examples 1 and 2 and Comparative Example 1 were chosen.
Each test substance (about 0.3 g) was put into a glass bottle, and stored under the conditions of 60° C. and relative humidity of 75% for 2 weeks.

Series [3] is described as follows: Storage stability test (3) under conditions of 60° C. and relative humidity of 75% (mass change, color appearance). Particulars: relative humidity 75%, 2 weeks; for Mass change ratio (%): glass bottle, {(A1−A0)/A0}×100. Here is the method: Storage Stability Test (3) Under Conditions of 60° C. and Relative Humidity of 75%
As test substances, the crystals obtained in Example 2 and Comparative Example 2 were chosen.
Each test substance (about 0.3 g) was put into a glass bottle, and stored under the conditions of 60° C. and relative humidity of 75% for 2 weeks, and then mass was measured. Mass change ratio of each test substance was calculated according to the following equation. Mass change ratio(%)={(A1−A0)/A0}×100 A0: Mass (g) of test substance before test A1: Mass (g) of test substance after test
Change of color appearance of the test substances was also visually evaluated.

Series [4] can be described thus: Storage for 2 weeks under conditions of 25° C. and relative humidity of 97%. To be noted: relative humidity 97%.

For the molecule `NC(=O)c1nc[nH]c1O.O=S(=O)(O)O` [Example 1, sulfate of 5-hydroxy-1H-imidazole-4-carboxamide], the “purity of the test substance after storage (HPLC)” value in series [1] (glass bottle, HPLC area %) worked out at 99.97%.

With `NC(=O)c1nc[nH]c1O.O=S(=O)(O)O` [Example 2, sulfate of 5-hydroxy-1H-imidazole-4-carboxamide], the coloring after storage result in series [2] was “coloring in an obviously lower degree”. The “purity after storage (in words)” value in series [1] (evaluated in the same manner as Test Example 2) is on record as “high purity even after the storage for 2 weeks”. The “Mass change ratio (%)” value in series [3] was −0.1%. For the same molecule, the “Change of color appearance” value in series [3] (visually evaluated) is “No change (white)”. Further, in series [4], the “appearance change after storage” value is reported as “did not show appearance change”.

`CS(=O)(=O)O.NC(=O)c1nc[nH]c1O` [Comparative Example 2, Methanesulfonate of 5-hydroxy-1H-imidazole-4-carboxamide, reference compound]: in series [3], the “Mass change ratio (%)” value is listed as “+16.2%”. The “appearance change after storage” value in series [4] was “deliquesced”.
